Patent US10196401B2, “Spiro-lactam NMDA receptor modulators and uses thereof” (Aptinyx Inc., priority 2016, dated 2019)

Legend:
[1] = Plasma protein binding, rat; type: in vitro ADME; conditions: read-out: plasma protein binding (% bound) (converted)
Protocol: Unbound drug concentration in the brain was also investigated, and plasma protein binding assays were conducted. The following table (% bound) indicates results for Compound A.
Unbound drug concentration in the brain was also investigated, and plasma protein binding assays were conducted. The following table (% bound) indicates results for Compound B.

Plasma stability, rat = type: in vitro ADME
Protocol: (§1) Microsomal and plasma stability of Compound A was investigated. The following table indicates the percent of Compound A remaining after 60 minutes.
(§2) Microsomal and plasma stability of Compound B was investigated. The following table indicates the percent of Compound B remaining after 60 minutes.

SD rats = assay: Novelty-induced hypophagia (NIH) test; type: in vivo, rat; conditions: 1 h before a single 10-min test session
Description: This Example relates to the assessment of the anxiolytic effect of treatment in the stress-induced anxiety model, novelty induced hypophagia. This assay is also sensitive to the rapid acting antidepressants ketamine and GLYX-13 (Li et al., “mTOR-dependent synapse formation underlies the rapid antidepressant effects of NMDA antagonists,” Science 329:959-964, 2010; and Burgdorf et al., 2013). See also Bodnoff et al., “A comparison of the effects of diazepam versus several typical and atypical anti-depressant drugs in an animal model of anxiety,” Psychopharmacology, 97:277-279, 1989.
Testing was conducted as described by (Burgdorf et al., 2013). […] Animals were food deprived overnight before testing, and lab chow was placed in the center chamber of an open field (40×40×20 cm) for 10 min under dim red lighting. Between testing each animal, feces and urine were removed from the apparatus. After NIHI testing, the latency to eat in the animal's home cage was determined as a control to ensure the effect on eating is specific to the novel environment. Animals were videotaped, and latency (sec) for the animal to take the first bite of food was manually scored offline.
A single point per dose group that was 2 or more standard deviations from the mean was considered an outlier and was excluded from the data analysis. […]

Sprague Dawley rats = assay: Porsolt forced swim test; type: in vivo, rat; conditions: compared to vehicle group
Protocol: A non-clinical in vivo pharmacology study (Porsoit assay) was performed to measure antidepressant-like effects. A negative control (0.5% sodium carboxymethyl cellulose in 0.9% sterile saline vehicle) and a positive control (Compound D) were used to compare against Compound A and Compound B. The study allowed for the construction of a dose-response curve of the effects of each compound on the Porsolt forced swim test as assessed by the rats' response (reduced floating time) during a 5-minute swimming test.
Male 2-3 month old Sprague Dawley rats were used (Harlan, Indianapolis, Ind.). Rats were housed in Lucite cages with aspen wood chip bedding, maintained on a 12:12 light:dark cycle (lights on at 5 AM), and given ad libitum access to Purina lab chow (USA) and tap water throughout the study.
The Porsolt forced swim test adapted for use in rats was performed as described by Burgdorf et al., (The long-lasting antidepressant effects of rapastinel (GLYX-13) are associated with a metaplasticity process in the medial prefrontal cortex and hippocampus. Neuroscience 308:202-211, 2015). […] Animals were videotaped, and floating time as defined as the minimal amount of effort required to keep the animals head above water was scored offline by a blinded experimenter with high inter-rater reliability (Pearson's r>0.9). […]

NMDAR2A = NMDAR2A (Homo sapiens, UniProt Q12879); assay: Potentiation of [3H]MK-801 binding, NMDAR2A; set-up: species or system rat; conditions: for Conclusion / % 1 mM Glycine: NMDAR2A binding profile; for % 1 mM Glycine: relative to 1 mM glycine; for potentiation of [3H]MK-801 binding, subtype preference in words: NR2A, FIG. 2 / FIG. 6
Protocol: Assays were conducted as described by Moskal et al., “GLYX-13: a monoclonal antibody-derived peptide that acts as an N-rnethyl-D-aspartate receptor modulator,” Neuropharmacology, 49, 1077-87, 2005. The potentiation of [^3H]MK-801 binding (5 nrM; 22.5 Ci/mmol) to well washed rat cortical membranes (200 μg) was measured under non-equilibrium conditions (15 min @ 25° C.) in the presence of increasing concentrations of Compound A.
Assays were conducted as described above in Example 5, by Moskal et al. (2005).

Plasma stability, human = type: in vitro ADME
Protocol: as §1, §2

Chain of NMDAR2A (Q12879 23-1464, species assumed, other chains not shown): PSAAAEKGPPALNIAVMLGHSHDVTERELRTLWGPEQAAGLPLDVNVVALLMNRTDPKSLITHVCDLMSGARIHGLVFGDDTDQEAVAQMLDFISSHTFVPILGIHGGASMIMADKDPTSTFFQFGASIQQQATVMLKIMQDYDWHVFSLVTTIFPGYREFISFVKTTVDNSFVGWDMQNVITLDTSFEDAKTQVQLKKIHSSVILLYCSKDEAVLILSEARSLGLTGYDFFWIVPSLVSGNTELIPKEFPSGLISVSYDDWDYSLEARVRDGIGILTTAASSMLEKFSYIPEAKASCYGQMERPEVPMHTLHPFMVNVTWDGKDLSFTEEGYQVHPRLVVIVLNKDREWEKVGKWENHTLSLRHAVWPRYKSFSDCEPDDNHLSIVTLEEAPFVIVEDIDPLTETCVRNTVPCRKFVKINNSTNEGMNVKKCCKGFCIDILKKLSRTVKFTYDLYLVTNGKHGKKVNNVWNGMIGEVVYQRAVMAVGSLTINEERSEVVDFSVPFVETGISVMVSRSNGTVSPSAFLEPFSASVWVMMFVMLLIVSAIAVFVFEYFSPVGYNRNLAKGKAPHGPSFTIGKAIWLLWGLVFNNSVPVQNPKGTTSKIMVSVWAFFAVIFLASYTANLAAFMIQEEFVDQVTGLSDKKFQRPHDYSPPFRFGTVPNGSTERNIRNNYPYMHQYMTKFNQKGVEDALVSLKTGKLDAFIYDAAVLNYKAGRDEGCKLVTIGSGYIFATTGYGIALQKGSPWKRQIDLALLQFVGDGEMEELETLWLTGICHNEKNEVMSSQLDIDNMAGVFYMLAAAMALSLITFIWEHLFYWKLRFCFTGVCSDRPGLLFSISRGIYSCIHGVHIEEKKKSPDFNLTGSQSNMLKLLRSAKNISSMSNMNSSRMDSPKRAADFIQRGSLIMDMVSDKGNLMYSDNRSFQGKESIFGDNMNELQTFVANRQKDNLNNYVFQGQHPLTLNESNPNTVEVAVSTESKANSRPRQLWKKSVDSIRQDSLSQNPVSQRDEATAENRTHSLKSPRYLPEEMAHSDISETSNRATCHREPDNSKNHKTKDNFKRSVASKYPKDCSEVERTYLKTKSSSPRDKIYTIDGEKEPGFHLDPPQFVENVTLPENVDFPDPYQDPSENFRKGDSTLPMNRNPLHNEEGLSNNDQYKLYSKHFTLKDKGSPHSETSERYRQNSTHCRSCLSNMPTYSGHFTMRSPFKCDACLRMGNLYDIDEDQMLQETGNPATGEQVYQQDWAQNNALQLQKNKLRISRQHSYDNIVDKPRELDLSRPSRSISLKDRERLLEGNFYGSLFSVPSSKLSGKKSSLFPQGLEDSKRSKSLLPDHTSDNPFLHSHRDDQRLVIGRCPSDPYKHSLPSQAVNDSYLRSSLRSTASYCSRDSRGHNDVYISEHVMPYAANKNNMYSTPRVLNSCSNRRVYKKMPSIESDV

Row | Compound | fraction unbound [1] | Plasma stability, percent remaining after 60 minutes (Plasma stability, rat) [%] | latency to eat in the NIH test (anxiolytic effect) (SD rats; 10-1000 μg/kg PO) | floating time in the Porsolt test (antidepressant-like effect) (Sprague Dawley rats; 10-1000 μg/kg PO, 1 h post-dosing) | Conclusion (NMDAR2A) | % 1 mM Glycine (NMDAR2A) [%] | potentiation of [3H]MK-801 binding, subtype preference in words (NMDAR2A) | Plasma stability, percent remaining after 60 minutes (Plasma stability, human) [%] | latency to eat in the NIH test (anxiolytic effect) (SD rats; 0.0001-1 μg/kg PO) | floating time in the Porsolt test (antidepressant-like effect) (Sprague Dawley rats; 0.1-10 μi/kg PO, 1 hour post-dosing)
1 | CC(C)CN1CCC[C@]12CN([C@H](C(N)=O)[C@@H](C)O)C2=O [Compound A, (2S,3R)-3-hydroxy-2-((R)-5-isobutyl-1-oxo-2,5-diazaspiro[3.4]octan-2-yl)butanamide] | 0.701 | 92 | produces an anxiolytic effect | produces an antidepressant-like effect | WT2A agonist | 47.42 | highly NR2A preferring | 100 |  | 
2 | CC(C)CN1CCC[C@@]12CN([C@H](C(N)=O)[C@@H](C)O)C2=O [Compound B, (2S,3R)-3-hydroxy-2-((S)-5-isobutyl-1-oxo-2,5-diazaspiro[3.4]octan-2-yl)butanamide] | 0.802 | 89 |  |  | WT2A agonist | 24.48 | lower potency in NR2A and NR2C | 100 | produces an anxiolytic effect | produces an antidepressant-like effect
